Converted amounts (≈) assume the structure as drawn. Residues, ends and D or L forms follow the SMILES beside them.
Key:
[1] = system: S. epidermidis (ATCC 35984) biofilm; test: Biofilm-formation inhibitory activity, crystal violet staining; type: cell-based, Staphylococcus epidermidis; conditions: CV staining, TSB, 10^6 CFU/mL, 24 h, 37°C, 0.98-250 µg/mL
Procedure: The biofilm inhibitory activity of peptide derivatives was assessed by modified crystal violet (CV) staining. Briefly, the pellet of S. epidermidis (ATCC 35984) was collected through centrifugation of bacterial suspensions grown overnight at 2,500 × g for 5 min. Subsequently, the pellet was resuspended and diluted with TSB to a final concentration of 10^6 CFU/mL. Then, 50 µL of these diluted suspensions was transferred to 96-well microplates containing same volume of peptide derivatives in 10 mM phosphate buffer saline (PBS; Caisson Labs, USA), with concentrations ranging from 0.98 to 250 µg/mL. Vancomycin was used as positive control while TSB medium without bacteria was used as negative control. After 24 h of incubation and reaching static growth at 37°C, culture media as well as planktonic cells were removed, then the biofilm in each well was washed thrice with 0.85% NaCl. For CV staining, biofilms were fixed with 95% ethanol and stained with a 0.1% (v/v) CV solution for 15 min. After removal of excess dye, each well was washed thrice with 0.85% NaCl and resuspended in 95% ethanol to dissolve bound dye. Absorbance was determined at 570 nm using a Multiskan SkyHigh microplate reader (Thermo Scientific™, Singapore). All experiments were done in six technical replicates and repeated independently three times. Minimum biofilm inhibitory concentrations at 50% and 90% (MBIC50 and MBIC90) refers to concentrations of the peptide at which the inhibition of biofilm was at least 50% and 90%, respectively.

[2] = system: Acinetobacter baumanii MT strain; test: Broth microdilution MIC / MBC; type: cell-based; conditions: 24 h, 37°C; for MIC: broth microdilution, MHB, 0.98-250 µg/mL, visible inspection; for MBC: plating of non-turbid wells on TSA
Procedure: (§1) The minimal inhibitory concentrations (MICs) of peptide derivatives versus planktonic bacteria were assessed using a modification of the broth microdilution assay previously described in the National Committee for Clinical Laboratory Standards (NCCLS). In brief, bacteria at mid-logarithmic growth were collected by centrifugation at 2,500 × g for 5 min. Subsequently, the pellet was resuspended and adjusted in Mueller-Hinton Broth (MHB; BD Bacto™, USA) to an OD620 of 0.05. Fifty µL of bacterial suspensions was transferred to 96-well microplates. Later, 50 µL of peptide derivatives at 0.98–250 µg/mL in 10 mM PBS, was added to wells and incubated for 24 h at 37°C with continuous shaking at 220 rpm. […] The experiments were done in three technical replicates and repeated independently.
(§2) To determine minimal bactericidal concentrations (MBCs) of the peptides, 50 µL of supernatant from non-turbid wells was plated on TSA, and the number of colony-forming units (CFUs) was observed after 24 h of incubation at 37°C. MBC was defined as the minimum concentration of peptide at which no bacterial colony was observed on the plate.

[3] = system: Bacillus cereus ATCC 11778; test: Broth microdilution MIC / MBC; type: cell-based; conditions: 24 h, 37°C; for MIC: broth microdilution, MHB, 0.98-250 µg/mL, visible inspection; for MBC: plating of non-turbid wells on TSA
Procedure: as §1, §2

[4] = system: Escherichia coli ATCC 25922; test: Broth microdilution MIC / MBC; type: cell-based; conditions: 24 h, 37°C; for MBC: plating of non-turbid wells on TSA
Procedure: as §1, §2

[5] = system: Listeria monocytogenes 10403s; test: Broth microdilution MIC / MBC; type: cell-based; conditions: 24 h, 37°C; for MIC: broth microdilution, MHB, 0.98-250 µg/mL, visible inspection; for MBC: plating of non-turbid wells on TSA
Procedure: as §1, §2

[6] = system: Pseudomonas aeruginosa ATCC 27853; test: Broth microdilution MIC / MBC; type: cell-based; conditions: 24 h, 37°C; for MIC: broth microdilution, MHB, 0.98-250 µg/mL, visible inspection; for MBC: plating of non-turbid wells on TSA
Procedure: as §1, §2

[7] = system: Salmonella Typhimurium ATCC 13311; test: Broth microdilution MIC / MBC; type: cell-based; conditions: 24 h, 37°C; for MIC: broth microdilution, MHB, 0.98-250 µg/mL, visible inspection; for MBC: plating of non-turbid wells on TSA
Procedure: as §1, §2

[8] = system: Staphylococcus aureus ATCC 25923; test: Broth microdilution MIC / MBC; type: cell-based; conditions: 24 h, 37°C
Procedure: as §1, §2

[9] = system: Staphylococcus epidermidis ATCC 35984; test: Broth microdilution MIC / MBC; type: cell-based; conditions: 24 h, 37°C; for MIC: broth microdilution, MHB, 0.98-250 µg/mL, visible inspection; for MBC: plating of non-turbid wells on TSA
Procedure: as §1, §2

[10] = system: human red blood cells (hRBCs); test: Hemolysis activity (hemoglobin release); type: cell-based; conditions: 1 h, 37°C
Procedure: The effect of peptides on human red blood cells (hRBCs) was assessed by observing the release of hemoglobin upon treated with peptide. Briefly, the hRBCs were obtained from healthy volunteers and subsequently diluted in 10 mM PBS to a concentration of 2% hRBCs. An equal volume of 2% hRBCs and peptide at concentration of 0.98–250 µg/mL in 10 mM PBS mixtures were incubated for 1 h at 37°C. Following incubation, the suspension was centrifuged, then supernatants were collected and transferred to 96-well microplates for measurement of absorbance at OD of 405 nm (OD405). This study was performed in accordance with the Thammasat University Ethics Committee (COA No. 066/2562). Written informed consent was obtained from all volunteers.

[11] = system: all gram-positive bacterial strains; test: Mean MIC and therapeutic index, gram-positive strains; type: cell-based; conditions: four gram-positive strains
Procedure: as §1
(§3) The therapeutic index (TI) is widely used for evaluating a peptide’s efficacy and safety. It is the ratio between the minimum hemolytic concentration (MHC, the concentration causing 10% hemolysis) and the geometric mean (GM) value of the MIC [15]. […] While, both lysine-substituted peptides (BiF2_7K and BiF2_5K7K) had higher TIs against all tested biofilm-forming bacteria than did the two parent peptides, and the TI of BiF2_5K7K was higher than that of BiF2_7K.

[12] = system: all gram-negative bacterial strains; test: Mean MIC and therapeutic index, gram-negative strains; type: cell-based; conditions: four gram-negative strains
Procedure: as §1, §3

[13] = system: human lung fibroblast MRC-5 cell lines (ATCC CCL-171); test: MTT cytotoxicity assay; type: cell-based; conditions: MRC-5, 24 h
Procedure: The toxicity of peptide BiF2_5K7K against human lung fibroblast MRC-5 cell lines (ATCC CCL-171) was investigated by MTT colorimetric assay. Briefly, MRC-5 cells were cultured in Minimum Essential Medium [MEM; supplemented with 10% heat-inactivated FBS and 1% Penicillin-Streptomycin] in 5% CO2 at 37°C. Following an overnight incubation, MRC-5 cells were diluted to 10,000 cells/well and placed in 96-well microplates. Subsequently, they were exposed to BiF2_5K7K at 0.98 to 250 µg/mL. After incubation for 24 h, MTT solution (0.4 mg/mL) was added to each well and incubated for an additional 3 h under 5% CO2 at 37°C. The supernatant was then removed and 100 µL DMSO added, and absorbance was measured at 570 nm using a microplate reader.

[14] = broth microdilution, MHB, 0.98-250 µg/mL, visible inspection

Row | SMILES | MIC [2] [µg/mL] | MBC [2] [µg/mL] | MIC [3] [µg/mL] | MBC [3] [µg/mL] | MBC [4] [µg/mL] | MIC [5] [µg/mL] | MBC [5] [µg/mL] | MIC [6] [µg/mL] | MBC [6] [µg/mL] | MIC [7] [µg/mL] | MBC [7] [µg/mL] | MIC [9] [µg/mL] | MBC [9] [µg/mL] | GM +, geometric mean of MIC values from all gram-positive bacterial strains [11] [µg/mL] | GM-, geometric mean of MIC values from all gram-negative bacterial strains [12] [µg/mL] | other results
1 | CC[C@H](C)[C@H](NC(=O)[C@H](CC(C)C)NC(=O)[C@H](CCCCN)NC(=O)[C@@H](NC(=O)[C@H](CC(C)C)NC(=O)[C@@H](N)Cc1ccccc1)C(C)C)C(=O)N[C@@H](CC(C)C)C(=O)N[C@@H](CCCCN)C(=O)N[C@H](C(=O)N[C@@H](CC(C)C)C(=O)N[C@@H](CCCNC(=N)N)C(=O)N[C@@H](CCCNC(=N)N)C(N)=O)[C@@H](C)CC [BiF2] (H-FLVKLILKILRR-NH2; N-terminus assumed) | 62.5 (≈ 41.4 µM) | 62.5 (≈ 41.4 µM) | 15.6 (≈ 10.3 µM) | 15.6 (≈ 10.3 µM) | 31.2 (≈ 20.7 µM) | 15.63 (≈ 10.3 µM) | 31.25 (≈ 20.7 µM) | 15.63 (≈ 10.3 µM) | 31.25 (≈ 20.7 µM) | 62.5 (≈ 41.4 µM) | 62.5 (≈ 41.4 µM) | 31.25 (≈ 20.7 µM) | 62.5 (≈ 41.4 µM) | 31.25 | 42.97 | MBIC50 ([1]; minimum concentration inhibiting biofilm formation more than 50%): 125 µg/mL; MBIC90 ([1]; minimum concentration inhibiting biofilm formation more than 90%): 250 µg/mL; MIC [4, 14]: 31.2 µg/mL (≈ 20.7 µM); MIC [8, 14]: 62.5 µg/mL (≈ 41.4 µM); MBC ([8]; plating of non-turbid wells on TSA): 62.5 µg/mL (≈ 41.4 µM); MHC, minimum hemolytic concentration ([10]; peptide concentration causing 10% hemolysis of hRBCs, 2% hRBCs in 10 mM PBS, OD405): 1.95 µg/mL
2 | CC[C@H](C)[C@H](NC(=O)CN)C(=O)NCC(=O)N[C@@H](C)C(=O)N[C@H](C(=O)N[C@@H](CC(C)C)C(=O)N[C@@H](CCCCN)C(=O)N[C@H](C(=O)N[C@@H](CC(C)C)C(=O)N[C@H](C(=O)N[C@H](C(=O)NCC(=O)N[C@@H](CC(C)C)C(=O)N1CCC[C@H]1C(=O)N[C@@H](C)C(=O)N[C@@H](CC(C)C)C(=O)N[C@H](C(=O)N[C@@H](CO)C(=O)N[C@@H](Cc1c[nH]c2ccccc12)C(=O)N[C@H](C(=O)N[C@@H](CCCCN)C(=O)N[C@@H](CCCNC(=N)N)C(=O)N[C@@H](CCCCN)C(=O)N[C@@H](CCCNC(=N)N)C(=O)N[C@@H](CCC(N)=O)C(=O)N[C@@H](CCC(N)=O)C(N)=O)[C@@H](C)CC)[C@@H](C)CC)[C@@H](C)O)[C@@H](C)O)C(C)C)C(C)C [Melittin, melittin, reference compound] | 7.81 (≈ 2.74 µM) | 7.81 (≈ 2.74 µM) | 3.91 (≈ 1.37 µM) | 3.91 (≈ 1.37 µM) | 31.2 (≈ 11 µM) | 3.91 (≈ 1.37 µM) | 3.91 (≈ 1.37 µM) | 15.6 (≈ 5.49 µM) | 15.6 (≈ 5.49 µM) | 3.91 (≈ 1.37 µM) | 3.91 (≈ 1.37 µM) | 15.6 (≈ 5.49 µM) | 15.6 (≈ 5.49 µM) | 6.84 | 14.65 | lysis of hRBCs ([10]; at 3.91 µg/mL): completely lysed; cytotoxic effect [13]: strong dose-dependent cytotoxic effect
